Measurements reported in the supplement of paper PMC10307832.

Key:
Experiment in all cases: relative viability (nuclei count vs DMSO), 5 days (fraction); higher = more cells survive
[1] = compound: N[C@@H]1CCCN(c2c(/C=C3\SC(=O)NC3=O)cccc2-c2ccccc2)C1 [AZD1208] + CC1(C)CCC(c2ccc(Cl)cc2)=C(CN2CCN(c3ccc(C(=O)NS(=O)(=O)c4ccc(N[C@H](CCN5CCOCC5)CSc5ccccc5)c(S(=O)(=O)C(F)(F)F)c4)cc3)CC2)C1 [Navitoclax] (partner 0.5 µM)
Procedure, shortened: (§1)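 After 5 days of treatment, lung cancer cells in 1536-well plates were fixed and stained in a single step (final 0.05% Triton X-100, 1% formaldehyde, 1 ug/ml Hoechst) and their nuclei counted on 4× images. Treatment had been applied by pin tool the day after seeding as one drug alone or as a fixed anchor-drug dose with five library-drug doses (not always all listed) in √10 steps. Relative viability is the nuclei count of treated wells divided by that of vehicle wells, and values are medians of duplicate plates.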

[2] = compound: N[C@@H]1CCCN(c2c(/C=C3\SC(=O)NC3=O)cccc2-c2ccccc2)C1 [AZD1208] + CC(=O)Nc1cccc(-n2c(=O)n(C3CC3)c(=O)c3c(Nc4ccc(I)cc4F)n(C)c(=O)c(C)c32)c1 [Trametinib] (partner 0.02 µM)
Procedure, shortened: as §1

[3] = compound: CN1CCN(CC1)C2=CC(=C(C=C2)NC3=NC(=C(S3)C(=O)C4=C(C=CC=C4Cl)Cl)N)OC [XMD14-99] + COc1cc2c(Oc3ccc(NC(=O)C4(C(=O)Nc5ccc(F)cc5)CC4)cc3F)ccnc2cc1OCCCN1CCOCC1 [Foretinib] (partner 0.25 µM)
Procedure, shortened: as §1

[4] = compound: CN1CCN(CC1)C2=CC(=C(C=C2)NC3=NC(=C(S3)C(=O)C4=C(C=CC=C4Cl)Cl)N)OC [XMD14-99] + O=C(CCCCCCC(=O)Nc1ccccc1)NO [Vorinostat] (partner 1 µM)
Procedure, shortened: as §1

| Cell Line | relative viability ([1]; first compound 0.08 µM) | relative viability ([1]; first compound 0.253 µM) | relative viability ([1]; first compound 0.8 µM) | relative viability ([1]; first compound 2.53 µM) | relative viability ([1]; first compound 8 µM) | relative viability ([2]; first compound 0.08 µM) | relative viability ([2]; first compound 0.253 µM) | relative viability ([2]; first compound 0.8 µM) | relative viability ([2]; first compound 2.53 µM) | relative viability ([2]; first compound 8 µM) | relative viability ([3]; first compound 0.08 µM) | relative viability ([3]; first compound 0.8 µM) | relative viability ([3]; first compound 2.53 µM) | relative viability ([3]; first compound 8 µM) | relative viability ([4]; first compound 0.08 µM) | relative viability ([4]; first compound 0.8 µM) | relative viability ([4]; first compound 2.53 µM) | relative viability ([4]; first compound 8 µM) |
| --- | --- | --- | --- | --- | --- | --- | --- | --- | --- | --- | --- | --- | --- | --- | --- | --- | --- | --- |
| NCI-H2170 | 0.505 | 0.664 | 0.418 | 0.521 | 0.251 | 0.966 | 1 | 0.869 | 0.868 | 0.57 | 0.978 | 1.02 | 1.02 | 0.921 | 0.784 | 0.832 | 0.741 | 0.609 |
| NCI-H2228 | 0.782 | 0.766 | 0.713 |  | 0.51 | 0.578 | 0.669 | 0.36 | 0.525 | 0.343 | 0.994 | 0.806 | 0.83 | 0.444 | 0.719 | 0.683 | 0.727 | 0.33 |
| NCI-H2347 | 0.917 | 0.94 | 0.685 | 0.794 | 0.716 | 0.316 | 0.27 | 0.257 | 0.264 | 0.26 | 0.913 | 0.92 | 1 | 0.369 | 0.533 | 0.598 | 0.455 | 0.358 |
| NCI-H2405 | 0.78 | 0.792 | 0.84 | 0.791 | 0.789 | 0.582 | 0.56 | 0.562 | 0.528 | 0.453 | 1.04 | 1.03 | 1.02 | 0.838 | 1 | 1.07 | 1 | 0.514 |
| NCI-H3122 | 1.04 | 1 | 0.995 | 1.05 | 1.08 | 0.201 | 0.221 | 0.192 | 0.203 | 0.165 | 0.948 | 0.964 | 0.847 | 0.756 | 0.962 | 0.991 | 0.923 | 0.707 |
| PC-3 [JPC-3] | 0.859 | 0.953 | 0.792 | 0.809 | 0.828 | 0.732 | 0.825 | 0.688 | 0.711 | 0.723 | 1.06 | 0.957 | 0.858 | 0.762 | 1.04 | 0.843 | 0.756 | 0.539 |
| PC-14 | 1.02 | 0.988 | 1.01 | 1.02 | 1 | 0.681 | 0.704 | 0.512 | 0.662 | 0.524 | 0.964 | 0.969 | 0.864 | 0.852 | 0.636 | 0.628 | 0.438 | 0.285 |
| RERF-LC-KJ | 1.03 | 0.908 | 0.959 | 0.921 | 0.662 | 0.903 | 0.844 | 0.727 | 0.776 | 0.548 | 0.462 | 0.908 | 0.867 | 0.803 | 0.788 | 0.685 | 0.553 | 0.595 |
| SK-LU-1 | 0.56 | 0.874 | 0.883 | 0.774 | 0.813 | 0.46 | 0.531 | 0.446 | 0.491 | 0.585 | 0.818 | 0.803 | 0.758 | 0.477 | 0.735 | 0.74 | 0.813 | 0.479 |
